Experimental findings from patent US20250304965A1, “DOUBLE-STRANDED RNA MOLECULE AND PHARMACEUTICAL USE THEREOF” (MACAU UNIVERSITY OF SCIENCE AND TECHNOLOGY, priority 2022, published 2025) are described below.

Read-outs that look alike come from different tables or passages of the source. [Ψ] = pseudouridine

Holding throughout (assay type): cell-based, human
One data set relates to A2780 cells. As to the kind of experiment: MTT cytotoxicity analysis, ovarian cancer cells A2780. The settings on record: for IC50: A2780 ovarian cancer cells, 48 hours of treatment, Lipofectamine RNAiMAX transfection reagent, MTT, read-out: Median inhibitory concentration IC50; for inhibition of growth and proliferation (cell viability vs control and RNAiMAX group): ovarian cancer cells A2780, 6.25-200 nM, 48 hours, FIG. 6-8. Here is the method:
(§1) A2780 and HCT-8 cell lines were cultured in RPMI 1640 medium containing 10% FBS and 1% penicillin/streptomycin. HepG2 cell lines were cultured in MEM medium containing 10% FBS and 1% penicillin/streptomycin. All the above cell lines were cultured at 37° C. in a humidified atmosphere containing 5% CO2.
(§2) In the cytotoxicity analysis, exponentially growing cells of each cancer cell line were inoculated at a density of 5000 cells per well in a 100 μL medium in a 96-well microplate and allowed to adhere for 24 hours prior to treatment. Then obtained RNA molecules at successive concentrations with a nucleic acid transfer vector, namely, Lipofectamine™ RNAiMAX transfection reagent (Thermo Fisher Scientific, United States), were added to the cells. After 48 hours of treatment, MTT solution (50 μL per well, 1 mg/mL solution) was added to each well and incubated at 37° C. for 4 hours. Then 200 μL of dimethyl sulfoxide (DMSO) was added, and an optical density of the resulting solution was measured via calorimetry by using SpectraMax 190 microplate reader (Molecular Devices, United States) at 570 nm. Dose-response curves were obtained and IC50 values were calculated via GraphPad Prism 5 (GraphPad, United States). Each experiment was performed three times.
(§3) Before addition of the MTT solution, the inventor determined the cytotoxic effects and IC 50 of the GL1, GL2, GL4, and GL6 mimics at different concentrations of 6.25 nM, 12.5 nM, 25 nM, 50 nM, 100 nM, and 200 nM on A2780, HCT-8 and HepG2 cells. After 48 hours of the treatment of the double-stranded RNA molecules, the cell viability of these cells was compared with that of the control group and the RNAiMAX group. Paclitaxel was used in a comparative example. […] The results were compared with those of the control group and the RNAiMAX group using the transfection agent. For IC50, refer to Table 4. Paclitaxel was used in a comparative example.
(§4) Then the inventor specifically determined the cytotoxic effects and IC50 of the RNA molecules GL2 mimic and different chemically modified GL10, GL11 and GL12 mimics at different concentrations of 6.25 nM, 12.5 nM, 25 nM, 50 nM, 100 nM, and 200 nM on A2780, HCT-8 and HepG2 cells. […] For IC50, refer to Table 5. Paclitaxel was used in a comparative example.

A further data set has as its system HCT-8 cells. As to the kind of experiment: MTT cytotoxicity analysis, colorectal cancer cells HCT-8. The settings on record: for IC50: HCT-8 colorectal cancer cells, 48 hours of treatment, Lipofectamine RNAiMAX transfection reagent, MTT, read-out: Median inhibitory concentration IC50; for inhibition of growth and proliferation (cell viability vs control and RNAiMAX group): colon cancer cells HCT-8, 6.25-200 nM, 48 hours, FIG. 6-8. As to the method:
as §1, §2, §3, §4

For a further data set, the system named is HepG2 cells. In words: MTT cytotoxicity analysis, liver cancer cells HepG2. The settings on record: for IC50: HepG2 liver cancer cells, 48 hours of treatment, Lipofectamine RNAiMAX transfection reagent, MTT, read-out: Median inhibitory concentration IC50; for inhibition of growth and proliferation (cell viability vs control and RNAiMAX group): liver cancer cells HepG2, 6.25-200 nM, 48 hours, FIG. 6-8. Here is the method: as §1, §2, §3, §4

Take `CC(=O)O[C@H]1C(=O)[C@@]2(C)[C@H]([C@H](OC(=O)c3ccccc3)[C@]3(O)C[C@H](OC(=O)[C@H](O)[C@@H](NC(=O)c4ccccc4)c4ccccc4)C(C)=C1C3(C)C)[C@]1(OC(C)=O)CO[C@@H]1C[C@@H]2O` [Taxol, Paclitaxel, reference compound]: the figures for the IC50 in the data set on A2780 cells (Homo sapiens), with HCT-8 cells (Homo sapiens) and in the data set on HepG2 cells (Homo sapiens) were 0.0732 µM, 0.621 µM and 0.678 µM, respectively.

“GL4 mimic: double-stranded RNA from Ganoderma lucidum tRNA-Ile(GAU); antisense SEQ ID NO: 5, sense SEQ ID NO: 14, length 22 (antisense AAGCCUAUAAUUUAAAGGUAGA; sense UCUACCUUUAAAUUAUAGGCUU; RNA, backbone not given here)”: the “inhibition of growth and proliferation (cell viability vs control and RNAiMAX group)” value is “effective in inhibiting growth and proliferation” in the data set on A2780 cells; “effective in inhibiting growth and proliferation” in the data set on HCT-8 cells; “effective in inhibiting growth and proliferation” in the data set with HepG2 cells. Further, the IC50 in the data set on HCT-8 cells stood at 0.95 µM; in the data set with HepG2 cells it was 0.35 µM.

As to “GL5: double-stranded RNA from Ganoderma lucidum tRNA-Ile(GAU); antisense SEQ ID NO: 6, sense SEQ ID NO: 15, length 19 (antisense AAGCCUAUAAUUUAAAGGU; sense ACCUUUAAAUUAUAGGCUU; RNA, backbone not given here)”, the “inhibition of growth and proliferation (cell viability vs control and RNAiMAX group)” value with A2780 cells was “have the effect of inhibiting the growth and proliferation of cancer cells”; in the data set on HCT-8 cells, “have the effect of inhibiting the growth and proliferation of cancer cells”; with HepG2 cells it was “have the effect of inhibiting the growth and proliferation of cancer cells”.

For the molecule “GL6 mimic: double-stranded RNA from Ganoderma lucidum tRNA-Ile(GAU); antisense SEQ ID NO: 7, sense SEQ ID NO: 16, length 22 (antisense UCGAUUCUUCUUGGGCUUACCA; sense UGGUAAGCCCAAGAAGAAUCGA; RNA, backbone not given here)”, the “inhibition of growth and proliferation (cell viability vs control and RNAiMAX group)” value in the data set on A2780 cells was “effective in inhibiting growth and proliferation”; in the data set with HCT-8 cells, “effective in inhibiting growth and proliferation”; in the data set with HepG2 cells, “effective in inhibiting growth and proliferation”. In addition, the IC50 in the data set on HCT-8 cells came to 0.6 µM; with HepG2 cells, 0.4 µM.

With “GL7: double-stranded RNA from Ganoderma lucidum tRNA-Ile(GAU); antisense SEQ ID NO: 8, sense SEQ ID NO: 17, length 19 (antisense AUUCUUCUUGGGCUUACCA; sense UGGUAAGCCCAAGAAGAAU; RNA, backbone not given here)”, the “inhibition of growth and proliferation (cell viability vs control and RNAiMAX group)” value with A2780 cells was “have the effect of inhibiting the growth and proliferation of cancer cells”; in the data set on HCT-8 cells, “have the effect of inhibiting the growth and proliferation of cancer cells”; in the data set on HepG2 cells, “have the effect of inhibiting the growth and proliferation of cancer cells”.

With “GL8: double-stranded RNA from Ganoderma lucidum tRNA-Ile(GAU); antisense SEQ ID NO: 9, sense SEQ ID NO: 18, length 22 (antisense AGUUCGAUUCUUCUUGGGCUUA; sense UAAGCCCAAGAAGAAUCGAACU; RNA, backbone not given here)”, the “inhibition of growth and proliferation (cell viability vs control and RNAiMAX group)” value was “have the effect of inhibiting the growth and proliferation of cancer cells” in the data set on A2780 cells; “have the effect of inhibiting the growth and proliferation of cancer cells” with HCT-8 cells; “have the effect of inhibiting the growth and proliferation of cancer cells” in the data set on HepG2 cells.

“GL9: double-stranded RNA from Ganoderma lucidum tRNA-Ile(GAU); antisense SEQ ID NO: 10, sense SEQ ID NO: 19, length 19 (antisense UCGAUUCUUCUUGGGCUUA; sense UAAGCCCAAGAAGAAUCGA; RNA, backbone not given here)”: the “inhibition of growth and proliferation (cell viability vs control and RNAiMAX group)” value is “have the effect of inhibiting the growth and proliferation of cancer cells” in the data set with A2780 cells; “have the effect of inhibiting the growth and proliferation of cancer cells” with HCT-8 cells; “have the effect of inhibiting the growth and proliferation of cancer cells” in the data set on HepG2 cells.

B1: GL2 mimic: double-stranded RNA from Ganoderma lucidum tRNA-Ile(GAU); antisense SEQ ID NO: 3, sense SEQ ID NO: 12, length 41 (nucleic acid)
antisense: AUAAGGAAUCUGUAGAAGUUCGAUUCUUCUUGGGCUUACCA
sense: UGGUAAGCCCAAGAAGAAUCGAACUUCUACAGAUUCCUUAU
modifications: RNA, backbone not given here
With B1, the IC50 stood at 0.0572 µM with A2780 cells, 0.0363 µM in the data set on HCT-8 cells and 0.24 µM in the data set on HepG2 cells. Moreover, the “inhibition of growth and proliferation (cell viability vs control and RNAiMAX group)” value was “have a dose-dependent effect on inhibiting the growth and proliferation” in the data set on A2780 cells; “effective in inhibiting growth and proliferation” with A2780 cells (listed as GL2); “have a dose-dependent effect on inhibiting the growth and proliferation” with HCT-8 cells; “effective in inhibiting growth and proliferation” with HCT-8 cells (listed as GL2); “have a dose-dependent effect on inhibiting the growth and proliferation” in the data set on HepG2 cells; “effective in inhibiting growth and proliferation” in the data set with HepG2 cells (listed as GL2).

B2: GL1 mimic: double-stranded RNA from Ganoderma lucidum tRNA-Ile(GAU); antisense SEQ ID NO: 2, sense SEQ ID NO: 11, length 33 (nucleic acid)
antisense: AAGCCUAUAAUUUAAAGGUAGAAUAAUUUCUUG
sense: CAAGAAAUUAUUCUACCUUUAAAUUAUAGGCUU
modifications: RNA, backbone not given here
In the case of B2, the IC50 in the data set with A2780 cells was found to be 0.225 µM; in the data set with HCT-8 cells, 0.084 µM; in the data set with HepG2 cells, 0.35 µM. Further, the “inhibition of growth and proliferation (cell viability vs control and RNAiMAX group)” value in the data set with A2780 cells is “effective in inhibiting growth and proliferation”; with HCT-8 cells, “effective in inhibiting growth and proliferation”; with HepG2 cells, “effective in inhibiting growth and proliferation”.

B3: GL10 mimic: chemically modified GL2 double-stranded RNA (5-methyluridine and pseudouridine); antisense SEQ ID NO: 20, sense SEQ ID NO: 24, length 41 (nucleic acid)
antisense: AUAAGGAAUCUGUAGAAGTUCGAUUCUUCUUGGGCUUACCA
sense: UGGUAAGCCCAAGAAGAAUCGAACUUCUACAGAUUCCUUAU
modifications: antisense: RNA, [Ψ] at 20, backbone not given here; sense: RNA, backbone not given here; further chemistry not fully specified
B3: the IC50 in the data set with A2780 cells amounted to 0.0519 µM; in the data set with HCT-8 cells, 0.0396 µM; with HepG2 cells, 0.144 µM. In addition, the “inhibition of growth and proliferation (cell viability vs control and RNAiMAX group)” value with A2780 cells was “have a dose-dependent effect on inhibiting the growth and proliferation”; in the data set with HCT-8 cells, “have a dose-dependent effect on inhibiting the growth and proliferation”; with HepG2 cells, “have a dose-dependent effect on inhibiting the growth and proliferation”.
